From US8075916B2, “Poly(organophosphazene) hydrogels for drug delivery, preparation method thereof and use thereof” (Korea Institute of Science and Technology, priority 2007, dated 2011)

Columns and labels:
[1] = pH 7.4
[2] = target: T1, albumin (Bovine Serum Albumin; BSA) (Bos taurus, UniProt P02769); assay: Formation of ionic bond between additives and protein drug (polyacrylamide gel electrophoresis); format: binding; settings: additive 0.02, 0.1, 1 and 2 mg/ml in 0.01% albumin solution
T1 construct: 0.01% albumin solution (Bovine Serum Albumin; BSA, Wako chemical); purchased Wako chemical
T1 sequence (P02769 25-607): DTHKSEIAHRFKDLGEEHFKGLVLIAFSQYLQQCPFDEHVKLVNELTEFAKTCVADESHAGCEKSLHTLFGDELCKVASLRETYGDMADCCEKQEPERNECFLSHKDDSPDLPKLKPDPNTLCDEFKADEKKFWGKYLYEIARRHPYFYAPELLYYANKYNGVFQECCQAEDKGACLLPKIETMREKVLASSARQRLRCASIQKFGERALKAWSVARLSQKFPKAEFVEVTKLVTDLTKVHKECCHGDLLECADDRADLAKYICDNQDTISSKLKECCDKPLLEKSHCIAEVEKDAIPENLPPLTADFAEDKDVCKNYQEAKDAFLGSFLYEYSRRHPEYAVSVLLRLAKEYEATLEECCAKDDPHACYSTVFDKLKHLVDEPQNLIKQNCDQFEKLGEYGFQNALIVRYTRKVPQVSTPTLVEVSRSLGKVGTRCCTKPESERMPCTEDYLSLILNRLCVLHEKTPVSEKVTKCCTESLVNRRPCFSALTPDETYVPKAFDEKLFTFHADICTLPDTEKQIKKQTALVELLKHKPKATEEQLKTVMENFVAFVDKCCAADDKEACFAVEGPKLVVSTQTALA
Procedure: In order to confirm the formation of an ion bond between the additives and drugs, gel electrophoresis was conducted. […] BSA, Wako chemical) at various concentrations (0.02, 0.1, 1 and 2 mg/ml) and sufficiently stirred.

[3] = system: Stomach cancer cells, SNU-601; assay: In vivo anti-cancer activity of hydrogel containing paclitaxel in nude mouse tumour model; settings: 60 mg/kg, day 10 after administration, ten mice per group
Procedure: A nude mouse (Oriental Bio, Balb/C, female of 5-weeks old, 20 g) was used as an animal model for animal experimentation for an in vivo test. Stomach cancer cells, SNU-601 (1×10^7 cells, 0.2 ml, Korean Cell Line Bank), were injected into the dorsum of the mouse. […] 0.2 ml of the solution was injected into the cancer cells, and the change in the size of the cells was measured. […] Each test was conducted for ten (10) mice for each of the control groups and the experimental groups.

Row | Compound | Max. gelling temp. [1] [°C] | also measured
1 | protamine | – | ionic bond with albumin: development on polyacrylamide gel [2]: worse development property of the gel as the concentration of the additive is higher
2 | poly[(isoleucine ethyl ester) (aminomethoxy polyethylene glycol 550)(aminoethylsuccinate)(aminoethylsuccinate ethylene hyaluronic acid)phosphazene] [Example 22] | 38 | –
3 | CC(=O)O[C@H]1C(=O)[C@@]2(C)[C@H]([C@H](OC(=O)c3ccccc3)[C@]3(O)C[C@H](OC(=O)[C@H](O)[C@@H](NC(=O)c4ccccc4)c4ccccc4)C(C)=C1C3(C)C)[C@]1(OC(C)=O)CO[C@@H]1C[C@@H]2O [paclitaxel] | – | mice died due to toxicity [3]: 8 mice

Further lines, with some results ahead:

Row | Max. gelling temp. [1] [°C] | Compound | also measured
4 | 46 | poly[(isoleucine ethyl-ester)(aminomethoxy polyethylene glycol 550)(glycylleucine)phosphazene] [Example 9] | –
5 | 37 | poly[(isoleucine ethyl ester)(aminomethoxy polyethylene glycol 550)(aminoethylsuccinate)phosphazene] [Example 18] | –
